Results from patent publication US5948436A, “Pharmaceutical composition” (Abbott Laboratories, priority 1995, dated 1999).

Columns and labels:
[1] = Oral bioavailability studies in dogs (AUC after oral vs. intravenous dose); design: species or system dog (beagle dogs, mixed sexes); details: dog, in vivo, 5 mg/kg
Protocol: Each dog received a single solid dosage form corresponding to a 5 mg/kg dose of the drug.

[2] = tested on: HIV-2 protease; assay: Inhibition of HIV-2 protease; assay type: biochemical
[3] = target: HIV-1 protease (HIV-1 M:B_HXB2R, UniProt P04585); assay type: biochemical

bioavailability [1]	SMILES	inhibition of HIV-2 protease [2]	inhibition of HIV-1 protease [3]
< 2%	CC(C)c1nc(CN(C)C(=O)N[C@H](C(=O)N[C@@H](Cc2ccccc2)C[C@H](O)[C@H](Cc2ccccc2)NC(=O)OCc2cncs2)C(C)C)cs1 [compound III, (2S,3S,5S)-5-(N-(N-((N-Methyl-N-((2-isopropyl-4-thiazolyl)methyl)-amino)carbonyl)valinyl)amino)-2-(N-((5-thiazolyl)methoxycarbonyl)amino)-1,6-diphenyl-3-hydroxyhexane]		
	CC(C)c1nc(CN(C)C(=O)NC(C(=O)NC(Cc2ccccc2)CC(O)C(Cc2ccccc2)NC(=O)OCc2cncs2)C(C)C)cs1 (stereo not drawn) [formula II]	especially effective	especially effective
